Assay results from patent publication US5518735A, “Meta-substituted phenylalanine derivatives” (priority 1990, dated 1996).
Counter-ions that a name gives are not always drawn.

Experiments:
glandular kallikrein = glandular kallikrein (Sus scrofa, UniProt P00752); test: Inhibition of glandular kallikrein (Ki); assay type: biochemical; conditions: Table 26; read-out: Ki, Gland. Kallikrein
thrombin = thrombin (Bos taurus, UniProt P00735); test: Inhibition of thrombin (dissociation constant Ki); assay type: biochemical
tPA = tPA (Homo sapiens, UniProt P00750); test: Inhibition of tPA (Ki); assay type: biochemical; conditions: Table 26
plasma kallikrein = target: T1, plasma kallikrein (Homo sapiens, UniProt P03952); test: Inhibition of plasma kallikrein (Ki); assay type: biochemical; conditions: Table 26
T1 construct: glandular kallikrein, factor XIIa and plasma kallikrein

factor Xa = factor Xa (Bos taurus, UniProt P00743); test: Inhibition of factor Xa (dissociation constant Ki); assay type: biochemical; conditions: Tables 19-25; read-out: Ki, Factor Xa
factor XIIa = target: T2, factor XIIa (Homo sapiens, UniProt P00748); test: Inhibition of factor XIIa (Ki); assay type: biochemical; conditions: Table 26
T2 construct: glandular kallikrein, factor XIIa and plasma kallikrein
T2 sequence (P00748 373-615 limits assumed): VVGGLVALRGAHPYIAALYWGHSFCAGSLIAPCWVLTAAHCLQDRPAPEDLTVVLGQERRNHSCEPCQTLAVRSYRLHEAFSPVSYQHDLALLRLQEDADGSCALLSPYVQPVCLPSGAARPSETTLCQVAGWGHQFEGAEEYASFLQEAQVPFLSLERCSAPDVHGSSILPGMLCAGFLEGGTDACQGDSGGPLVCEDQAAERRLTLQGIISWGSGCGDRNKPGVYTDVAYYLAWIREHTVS

in vivo = conditions: mouse
plasmin = target: T3, plasmin (Homo sapiens, UniProt P00747); test: Inhibition of plasmin (Ki); assay type: biochemical; conditions: Table 26
T3 construct: trypsin and the related enzymes thrombin, plasmin, factor Xa, tPA

trypsin = target: T4, trypsin (Bos taurus, UniProt P00760); test: Inhibition of trypsin (Ki); assay type: biochemical; conditions: Table 26
T4 sequence (P00760 24-246): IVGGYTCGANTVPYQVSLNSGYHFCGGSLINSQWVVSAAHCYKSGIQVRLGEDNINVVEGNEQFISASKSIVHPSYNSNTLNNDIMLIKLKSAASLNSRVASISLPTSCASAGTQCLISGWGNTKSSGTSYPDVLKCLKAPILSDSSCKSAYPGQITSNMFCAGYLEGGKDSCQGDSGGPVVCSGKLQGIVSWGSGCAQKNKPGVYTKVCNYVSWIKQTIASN

[1] = Plasma concentration in rats after subcutaneous administration (HPLC); conditions: rat, plasma, sc, 5 mg/kg
[2] = Plasma concentration in rats after oral administration (HPLC); conditions: rat, plasma, po, 100 mg/kg
[3] = Plasma concentration in rats after intravenous administration (HPLC); conditions: for Concentration in plasma: i.v. 1 mg/kg
Protocol: For the pharmacokinetic characterization, the plasma concentration of selected derivatives was determined in rats after intravenous (i.v.), subcutaneous (s.c.) and peroral (p.o.) application according to the following three-step procedure:
1. A physiological NaCl solution of the substance to be tested was submitted to high pressure liquid chromatography (HPLC) in order to determine its characteristic substance-specific retention time with the chosen test conditions.
2. The substance to be tested was diluted in vitro in rat plasma. This solution was also submitted to HPLC to see whether the characteristic peak of the substance once again appeared at the substance-specific retention time.
3. […] Blood samples were taken at time intervals of 15 minutes, from which plasma samples were prepared by centrifugation; those samples were also submitted to HPLC to see whether the characteristic peak of the substance appeared again at the substance-specific retention time.

[4] = cited from earlier work

Sequence of tPA (P00750 36-562): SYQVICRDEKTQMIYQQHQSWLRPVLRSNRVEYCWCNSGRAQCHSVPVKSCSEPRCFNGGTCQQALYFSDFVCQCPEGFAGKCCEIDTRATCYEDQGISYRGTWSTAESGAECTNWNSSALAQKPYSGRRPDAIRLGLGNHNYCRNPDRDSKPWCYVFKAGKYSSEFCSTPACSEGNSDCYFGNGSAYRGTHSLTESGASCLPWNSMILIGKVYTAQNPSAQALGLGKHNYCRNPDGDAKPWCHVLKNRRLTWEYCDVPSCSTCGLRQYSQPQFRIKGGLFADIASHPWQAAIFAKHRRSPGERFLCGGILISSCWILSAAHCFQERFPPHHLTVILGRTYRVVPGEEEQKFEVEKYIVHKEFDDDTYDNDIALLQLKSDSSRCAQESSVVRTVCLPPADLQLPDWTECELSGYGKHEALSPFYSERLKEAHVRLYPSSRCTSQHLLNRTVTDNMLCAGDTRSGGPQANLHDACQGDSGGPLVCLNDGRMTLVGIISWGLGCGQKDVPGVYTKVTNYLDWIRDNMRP
Sequence of factor Xa (P00743 234-492 limits assumed): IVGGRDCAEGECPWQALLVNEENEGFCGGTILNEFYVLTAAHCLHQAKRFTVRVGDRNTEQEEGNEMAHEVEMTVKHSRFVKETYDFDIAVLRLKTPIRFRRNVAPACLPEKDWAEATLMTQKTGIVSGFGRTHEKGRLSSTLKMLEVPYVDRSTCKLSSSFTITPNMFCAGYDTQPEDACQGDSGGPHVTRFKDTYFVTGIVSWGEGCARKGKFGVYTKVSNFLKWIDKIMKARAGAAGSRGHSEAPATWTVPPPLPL
Sequence of factor Xa (P00743 41-180 partner limits assumed): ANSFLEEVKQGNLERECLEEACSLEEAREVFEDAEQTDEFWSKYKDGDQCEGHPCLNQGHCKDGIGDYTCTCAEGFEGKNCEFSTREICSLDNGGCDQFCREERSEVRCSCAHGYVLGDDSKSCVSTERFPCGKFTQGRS
T1 sequence (P03952 391-638 limits assumed, species assumed): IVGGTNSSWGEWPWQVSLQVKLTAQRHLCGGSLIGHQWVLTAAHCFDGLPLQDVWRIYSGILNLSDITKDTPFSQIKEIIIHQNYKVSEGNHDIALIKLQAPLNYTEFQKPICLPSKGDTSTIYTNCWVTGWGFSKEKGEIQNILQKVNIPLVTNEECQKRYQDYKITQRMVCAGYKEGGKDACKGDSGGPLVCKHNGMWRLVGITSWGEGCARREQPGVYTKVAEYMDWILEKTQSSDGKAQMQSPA
T1 sequence (P03952 20-390 partner limits assumed, species assumed): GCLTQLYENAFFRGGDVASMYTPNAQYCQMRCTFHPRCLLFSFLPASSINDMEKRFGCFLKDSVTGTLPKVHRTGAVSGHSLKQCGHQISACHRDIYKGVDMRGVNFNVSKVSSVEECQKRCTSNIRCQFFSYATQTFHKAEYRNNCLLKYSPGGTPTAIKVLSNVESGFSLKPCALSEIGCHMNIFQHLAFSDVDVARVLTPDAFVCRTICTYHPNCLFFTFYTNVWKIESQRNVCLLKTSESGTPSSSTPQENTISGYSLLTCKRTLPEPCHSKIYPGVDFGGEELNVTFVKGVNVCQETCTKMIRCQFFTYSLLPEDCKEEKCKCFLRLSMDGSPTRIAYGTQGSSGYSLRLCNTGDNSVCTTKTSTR
T3 sequence (P00747 581-810 limits assumed): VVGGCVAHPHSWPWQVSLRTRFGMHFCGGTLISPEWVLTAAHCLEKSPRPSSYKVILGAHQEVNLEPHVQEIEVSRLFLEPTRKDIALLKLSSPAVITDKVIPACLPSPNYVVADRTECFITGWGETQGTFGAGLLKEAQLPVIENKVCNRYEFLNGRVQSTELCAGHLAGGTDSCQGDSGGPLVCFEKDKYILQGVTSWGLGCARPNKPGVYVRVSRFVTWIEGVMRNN
T3 sequence (P00747 97-580 partner limits assumed): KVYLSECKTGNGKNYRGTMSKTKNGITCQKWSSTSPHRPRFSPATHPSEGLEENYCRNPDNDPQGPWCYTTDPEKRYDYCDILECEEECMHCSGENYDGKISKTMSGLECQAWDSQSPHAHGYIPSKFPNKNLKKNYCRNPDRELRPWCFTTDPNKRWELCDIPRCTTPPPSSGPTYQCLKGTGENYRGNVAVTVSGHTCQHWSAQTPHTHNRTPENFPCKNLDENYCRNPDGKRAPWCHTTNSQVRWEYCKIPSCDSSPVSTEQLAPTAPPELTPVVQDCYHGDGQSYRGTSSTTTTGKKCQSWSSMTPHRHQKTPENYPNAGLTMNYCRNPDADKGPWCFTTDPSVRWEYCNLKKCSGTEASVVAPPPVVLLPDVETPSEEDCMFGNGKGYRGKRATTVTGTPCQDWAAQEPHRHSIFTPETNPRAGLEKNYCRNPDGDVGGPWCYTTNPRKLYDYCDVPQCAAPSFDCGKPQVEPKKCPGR
Sequence of glandular kallikrein (P00752 8-246): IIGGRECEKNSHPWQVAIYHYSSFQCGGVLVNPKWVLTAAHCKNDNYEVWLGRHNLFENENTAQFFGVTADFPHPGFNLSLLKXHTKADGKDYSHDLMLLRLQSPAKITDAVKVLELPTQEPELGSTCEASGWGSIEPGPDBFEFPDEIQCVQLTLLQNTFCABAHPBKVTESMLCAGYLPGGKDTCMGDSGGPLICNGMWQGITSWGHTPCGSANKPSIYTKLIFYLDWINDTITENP

Work on `COC(=O)[C@H]1CCCN1C(=O)[C@H](Cc1cccc(C(=N)N)c1)NS(=O)(=O)c1ccc2ccccc2c1` [Compound 124, N-α-(2-Naphthylsulfonyl)-3-amidino-(L)-phenylalanyl-(D)-proline-methyl ester hydrochloride] yielded a Ki (glandular kallikrein) of over 1000 µM, a Ki (thrombin) of 0.27 µM and a Ki (tPA) of 225 µM. It also gave a Ki (plasma kallikrein) of 29 µM, a Ki (factor Xa) of 104 µM and a Ki (factor XIIa) of 600 µM. The LD50 at 168 h (in vivo; iv) was 80 mg/kg, the LD50 at 168 h (in vivo; po) was over 3000 mg/kg and the Ki (plasmin) was 11 µM. For the same molecule, the Ki (trypsin) was 3.4 µM.
Work on `CC1CCN(C(=O)C(Cc2cccc(C(=N)N)c2)NS(=O)(=O)c2ccc3ccccc3c2)C(C(=O)O)C1` (racemic) [Compound 86] yielded a Ki (glandular kallikrein) of over 1000 µM, a Ki (thrombin) of 0.12 µM and a Ki (tPA) of 470 µM. For the same molecule, the Ki (plasma kallikrein) was 84 µM, the Ki (factor Xa) was 96 µM and the Ki (factor XIIa) was over 1000 µM. It also gave a Ki (plasmin) of 42 µM and a Ki (trypsin) of 1.2 µM.
`N=C(N)c1cccc(CC(NS(=O)(=O)c2ccc3ccccc3c2)C(=O)N2CCCCC2C(=O)O)c1` (racemic) [Compound 83] showed a Ki (glandular kallikrein) of about 1000 µM, a Ki (thrombin) of 0.26 µM and a concentration at 0.25 h [1] of 402 ng/mL. For the same molecule, the concentration at 0.5 h [1] was 620 ng/mL, the concentration at 0.75 h [1] was 626 ng/mL and the concentration at 1 h [1] was 568 ng/mL. The concentration at 1.5 h [1] was 467 ng/mL, the concentration at 2 h [1] was 415 ng/mL and the concentration at 3 h [1] was 314 ng/mL. It also gave a concentration at 4 h [1] of 297 ng/mL, a Ki (tPA) of 205 µM and a Ki (plasma kallikrein) of 32 µM. For the same molecule, the Ki (factor Xa) was 38 µM, the concentration at 0.25 h [2] was 133 ng/mL and the concentration at 0.5 h [2] was 79 ng/mL. The concentration at 1 h [2] was 50 ng/mL, the concentration at 1.5 h [2] was 37 ng/mL and the concentration at 2 h [2] was 38 ng/mL. For the same molecule, the concentration at 3 h [2] was 25 ng/mL, the concentration at 4 h [2] was 23 ng/mL and the Ki (factor XIIa) was over 1000 µM. For the same molecule, the LD50 at 168 h (in vivo; iv) was 272 mg/kg, the LD50 at 168 h (in vivo; po) was over 3000 mg/kg and the Ki (plasmin) was 34 µM. For the same molecule, the pharmacokinetic properties ([3]; in words, compared with NAPAP) was “improved pharmacokinetic properties”, the Concentration in plasma ([3]; rat, 120 min) was 0 ng/mL and the Concentration in plasma ([3]; rat, 180 min) was 0 ng/mL. For the same molecule, the concentration at 2 min ([3]; rat, plasma, iv, 1 mg/kg) was 1900 ng/mL, the concentration at 5 min ([3]; rat, plasma, iv, 1 mg/kg) was 928 ng/mL and the concentration at 10 min ([3]; rat, plasma, iv, 1 mg/kg) was 496 ng/mL. For the same molecule, the concentration at 0.25 h ([3]; rat, plasma, iv, 1 mg/kg) was 243 ng/mL, the concentration at 0.5 h ([3]; rat, plasma, iv, 1 mg/kg) was 150 ng/mL and the concentration at 0.75 h ([3]; rat, plasma, iv, 1 mg/kg) was 115 ng/mL. It also gave a concentration at 1 h ([3]; rat, plasma, iv, 1 mg/kg) of 85 ng/mL and a concentration at 1.5 h ([3]; rat, plasma, iv, 1 mg/kg) of 45 ng/mL.
For `CN[C@H](Cc1ccccc1)C(=O)N1CCC[C@H]1C(=O)N[C@H](C=O)CCCN=C(N)N` [N-methyl-D-Phe-Pro-Arg-H], the “absorption after oral administration” value [4] is listed as “absorption after oral administration has so far only been observed”.
`CC1CCN(C(=O)C(Cc2cccc(C(=N)N)c2)NC(=O)CNS(=O)(=O)c2ccc3ccccc3c2)CC1` (racemic) [Compound 156, N-α-(2-Naphthylsulfonyl)-glycyl-3-amidino-(D,L)-phenylalanine-4-methylpiperidide] showed a Ki (glandular kallikrein) of over 1000 µM, a Ki (thrombin) of 3.6 µM and a Ki (tPA) of 340 µM. The Ki (plasma kallikrein) was 68 µM, the Ki (factor Xa) was 25 µM and the Ki (factor XIIa) was 350 µM. The Ki (plasmin) was 46 µM and the Ki (trypsin) was 46 µM.
For BOC-D-Phe-Pro-Boro-Arg-C10 H16, the “absorption after oral administration” value [4] is listed as “absorption after oral administration has so far only been observed”.
